Results published in article PMC10529594, “Strasseriolides display in vitro and in vivo activity against trypanosomal parasites and cause morphological and size defects in Trypanosoma cruzi” (PLOS Neglected Tropical Diseases, 2023).
pEC50: −log10 of the molar value. Where “and” joins values, the source holds several entries; their conditions need not be identical. Identical values can stand only once. Like-named read-outs stand apart in the source and are kept apart here.

Assays:
[1] = tested on: T. b. brucei 427 bloodstream forms; test: Resazurin-based T. b. brucei assay; format: cell-based; conditions: Trypanosoma brucei, 72 h, read-out: EC50 T. brucei
Method: Parasites strains adapted to culture in vitro were used. T. b. brucei Lister 427 bloodstream form parasites (information about the identity and genealogy of this strain is available at The Rockefeller University website) were grown in HMI-9 medium supplemented with 10% heat-inactivated fetal bovine serum (iFBS).
Cells in logarithmic phase of growth were added using a Multidrop dispenser (45 μL, 500 bloodstream T. b. brucei parasites per well) to 384-well Corning assay plates already containing 5 μL of each compound and controls, and incubated for 72 hours at 37°C. 10 μL of resazurin were added per well, and the plates were further incubated for 6 hours at 37°C. The final fluorescence was determined at 550–590 nm. Pentamidine at 40 nM and 0.0067% DMSO were used as […] growth controls, respectively.

L6 rat myoblast cells = test: Cytotoxicity evaluation in L6 cells (resazurin); format: cell-based; conditions: for pEC50: Rattus norvegicus, Myoblast, 72 h, read-out: EC50 L6
Method: One hundred microliters of supplemented RPMI 1640 medium containing the compounds and controls were added to L6 rat myoblast cells previously seeded (4,000 cells per well) in a 96-well microplate. After 72 hours at 37°C the viable cell number was determined by resazurin reduction. 20 μL of resazurin at 0.11 mg/mL in PBS 1X were added to each well and incubated in the dark for 2 hours at 37°C. Cell viability was estimated by measuring the final fluorescence at 570–590 nm in a Tecan Infinite F200 plate reader.

[2] = tested on: L. donovani MHOM/ET/67/HU3 transgenic intracellular amastigotes; test: L. donovani intracellular amastigote assay (luciferase, THP-1 macrophages); format: cell-based; conditions: Leishmania donovani, THP-1, 72 h, read-out: EC50 L. donovani
Method: Leishmania donovani MHOM/ET/67/HU3 cells with the luciferase gene integrated into the parasite genome was obtained as described. Parasites were grown at 28°C in RPMI 1640-modified medium supplemented with 20% heat-inactivated fetal bovine serum (iFBS, Invitrogen) with […] of hygromycin B.
THP-1 cells were differentiated into macrophages with 20 ng/mL of PMA in a 96-well plate at 3 × 10^4 cells per well for 48 hours followed by 24 hours of culture in fresh medium. Cells were then infected with transgenic stationary L. donovani MHOM/ET/67/HU3 promastigotes expressing the luciferase gene at a multiplicity of infection (MOI) of 10. A volume of 100 μL of culture media containing the test compounds was added to each well and the plates were incubated at 37°C for 72 hours. Luminescence was measured using the Promega kit luciferase assay system.

[3] = tested on: human macrophage THP-1 cells; test: Cytotoxicity in THP-1 macrophages (MTT); format: cell-based; conditions: for pEC50: Homo sapiens, read-out: EC50 THP-1
Method: Cellular toxicity of compounds in the human macrophage host TPH-1 cell line was determined using the colorimetric MTT-based assay as previously described.
THP-1 cells were seeded at 3 × 10^4 cells/well in 96-well plates and were differentiated to macrophages with 20 ng/ml of PMA treatment for 48 h followed by 24 h incubation in fresh medium. Strasseriolides were added at increasing concentrations up to 50 μM and cells were further incubated at 37°C for 72 h. 10 μL of MTT (5 mg/mL in PBS) were added to each well, and plates were incubated for an additional period of 8 h at 37°C. Formazan crystals were dissolved by adding 50 μL of 20% SDS and absorbance was read at 595 nm using a microplate reader.

[4] = tested on: T. cruzi Tulahuen C4 epimastigotes; test: T. cruzi epimastigotes growth inhibition assay (resazurin); format: cell-based, Trypanosoma cruzi; conditions: for EC30, epimastigotes / EC70, epimastigotes: from dose-response curve; for pEC50: Tulahuen C4, 72 h, resazurin
Method: The Trypanosoma cruzi Tulahuen strain used is a genetically modified strain that expresses the Escherichia coli β-galactosidase gene, lacZ [31]. It was kindly supplied by Marcel Kaiser (Swiss Tropical and Public Health Institute). The T. cruzi Tulahuen C4 strain was cultured in RPMI-1640 supplemented with 10% inactivated FBS (iFBS), 1.7 mM L-glutamine, 100 U/mL penicillin, and […] at 37°C and 5% CO2. L6 rat skeletal muscle cells were purchased from ATCC (reference CRL-1458) and used as host cells for infection with transgenic T. cruzi trypomastigotes. Epimastigotes were obtained by differentiation in LIT medium with 10% iFBS at 28°C from trypomastigote forms.
A resazurin-based assay was set up in 96-well microplates containing 10 μL of test compound at concentrations ranging from 0.39 to 200 μM and log phase parasites seeded at 2 × 10^5 cells per well in a final volume of 100 μL. Maximum DMSO percentage in the well was 0.2%. Positive and negative growth controls were included. Following 72 hour incubation at 28°C with orbital shaking, 10 μL of resazurin solution were added to each well and the plates were returned to the incubator for 4 hours. Resazurin reduction was correlated to cell viability by fluorescence measurement with excitation and emission wavelength bands centered at 550 and 590 nm, respectively, in a Tecan Infinite 200 microplate reader.

T. cruzi epimastigotes = test: FACS analysis of T. cruzi epimastigotes (cell cycle, size and complexity); format: cell-based, Trypanosoma cruzi; conditions: for Foward Scatter (FSC) - Geometric Mean, single experiment / Foward Scatter (FSC) - Geometric Mean, Average / size reduction with respect to untreated parasites: 72 h
Method: FACS analysis was used to study cell cycle progression and cellular parameters such as size and complexity. 5 × 10^6 T. cruzi epimastigotes were harvested by centrifugation at 1,000×g and 4°C after 72 hours of incubation in a 6-well plate in the presence and in absence of test compounds. Pellets of cells were washed with 5 mL of PBS and fixed in a solution of 70% ice-cold ethanol/PBS at -20°C overnight. Cells were then collected by centrifugation, washed with PBS and stained with 40 μg/mL of propidium iodide in PBS containing 10 μg/mL of RNase A at 37°C for 30 minutes. Fluorescence was monitored with a Becton Dickinson FACSCalibur using BD CellQuest Pro version 4.0.2 software with a total of 10,000 events acquired for each sample. The different cell populations as well as mean cellular parameters were determined by FlowJo software.

[5] = Trypanosoma cruzi, TULAHUEN, 72 h
[6] = 72-hour drug exposure, FACS with PI staining, EC30, average
[7] = 72-hour drug exposure, FACS with PI staining, EC30, single replicates
[8] = 72-hour drug exposure, FACS with PI staining, EC70, average
[9] = 72-hour drug exposure, FACS with PI staining, EC70, single replicates

Structure (SMILES)	pEC50 [1]	pEC50 (L6 rat myoblast cells; resazurin)	pEC50 [2]	Selectivity index intracellular L. donovani versus THP-1 cells [3]	pEC50 ([3]; THP-1, 72 h, MTT)	EC30, epimastigotes ([4]; 72 h)	EC70, epimastigotes ([4]; 72 h)	pEC50 [4, 5]	% Cells G1, Average (T. cruzi epimastigotes; [6])	% Cells G2/M, Average (T. cruzi epimastigotes; [6])	% Cells S, Average (T. cruzi epimastigotes; [6])	% Cells sub-G1, Average (T. cruzi epimastigotes; [6])	% Cells G1, individual replicates (T. cruzi epimastigotes; [7])	% Cells G2/M, individual replicates (T. cruzi epimastigotes; [7])	% Cells S, individual replicates (T. cruzi epimastigotes; [7])	% Cells post G2/M, individual replicates (T. cruzi epimastigotes; [7])	Foward Scatter (FSC) - Geometric Mean, single experiment (T. cruzi epimastigotes; EC30)	Foward Scatter (FSC) - Geometric Mean, Average (T. cruzi epimastigotes; EC30, control 96.65)	Foward Scatter (FSC) - Geometric Mean, single experiment (T. cruzi epimastigotes; EC70)	Foward Scatter (FSC) - Geometric Mean, Average (T. cruzi epimastigotes; EC70, control 96.65)	further results
C/C1=C\[C@H](C)C(=O)C[C@@H](O)/C(C)=C/[C@H](C)C[C@@H](C)CC[C@@H]([C@@H](C)C(=O)O)OC(=O)[C@@H](C)C1 [Strasseriolide C, strasseriolide C]	4.22	< 4.30	5.18	68	3.35	28 µM	47 µM	4.49	50.2633%	31.3463%	16.5971%	3.151%	52.1473% and 48.3792%	31.009% and 31.6835%	14.5117% and 18.6825%	-0.5484% and -2.167%	81.2 and 80.4	80.8	72.5 and 74.3	73.4	% Cells sub-G1, individual replicates (T. cruzi epimastigotes; [7]): 2.8804% and 3.422%; % Cells G1, Average (T. cruzi epimastigotes; [8]): 52.4319%; % Cells G2/M, Average (T. cruzi epimastigotes; [8]): 31.1794%; % Cells S, Average (T. cruzi epimastigotes; [8]): 14.7538%; % Cells sub-G1, Average (T. cruzi epimastigotes; [8]): 3.07%; % Cells G1, individual replicates (T. cruzi epimastigotes; [9]): 54.5779% and 50.2858%; % Cells G2/M, individual replicates (T. cruzi epimastigotes; [9]): 30.5655% and 31.7933%; % Cells S, individual replicates (T. cruzi epimastigotes; [9]): 10.63% and 18.8776%; % Cells post G2/M, individual replicates (T. cruzi epimastigotes; [9]): -0.9732% and -1.896%; % Cells sub-G1, individual replicates (T. cruzi epimastigotes; [9]): 5.2% and 0.9392%; size reduction with respect to untreated parasites (T. cruzi epimastigotes; at EC30): 16%; size reduction with respect to untreated parasites (T. cruzi epimastigotes; at EC70): 22%
C/C1=C\[C@H](C)[C@@H](O)C[C@@H](O)/C(C)=C/[C@H](C)C[C@@H](C)CC[C@@H]([C@@H](C)C(=O)O)OC(=O)[C@@H](C)C1 [Strasseriolide D, strasseriolide D]	< 4.00	< 4.00	4.87	> 37	< 3.30	36 µM	68 µM	4.37	48.0485%	33.3241%	15.9233%	2.693%	50.4058% and 45.6911%	32.7574% and 33.8908%	14.3321% and 17.5145%	0.6783% and -0.6562%	81.9 and 80.4	81.15	77.8 and 72.2	75	% Cells post G2/M, Average (T. cruzi epimastigotes; [6]): 0.01106%; % Cells sub-G1, individual replicates (T. cruzi epimastigotes; [7]): 1.8263% and 3.56%; % Cells G1, Average (T. cruzi epimastigotes; [8]): 50.7294%; % Cells G2/M, Average (T. cruzi epimastigotes; [8]): 37.5216%; % Cells S, Average (T. cruzi epimastigotes; [8]): 12.1278%; % Cells sub-G1, Average (T. cruzi epimastigotes; [8]): 1.9646%; % Cells G1, individual replicates (T. cruzi epimastigotes; [9]): 49.2764% and 52.1825%; % Cells G2/M, individual replicates (T. cruzi epimastigotes; [9]): 34.0219% and 41.0212%; % Cells S, individual replicates (T. cruzi epimastigotes; [9]): 15.873% and 8.383%; % Cells post G2/M, individual replicates (T. cruzi epimastigotes; [9]): -1.15% and -3.537%; % Cells sub-G1, individual replicates (T. cruzi epimastigotes; [9]): 1.978% and 1.951%; size reduction with respect to untreated parasites (T. cruzi epimastigotes; at EC30): 16%; size reduction with respect to untreated parasites (T. cruzi epimastigotes; at EC70): 24%
O=C(Cn1ccnc1[N+](=O)[O-])NCc1ccccc1 [Benznidazole, benznidazole]						7.5 µM	22.5 µM	4.89									93.4 and 92.7	93.05	96.7 and 91.2	93.95	EC90 [4, 5]: 96 µM; Foward Scatter (FSC) - Geometric Mean, single experiment (T. cruzi epimastigotes; EC90): 75.3 and 74.1; Foward Scatter (FSC) - Geometric Mean, Average (T. cruzi epimastigotes; EC90, control 96.65): 74.7
C/C1=C\[C@H](C)CCC(=O)/C(C)=C/[C@H](C)C[C@@H](C)CC[C@@H]([C@@H](C)C(=O)O)OC(=O)[C@@H](C)C1 [Strasseriolide A, strasseriolide A]	3.56	< 4.30	< 4.82	> 8	< 3.90			< 4.30													Selectivity index T. cruzi Tulahuen C4 versus L6 cells (L6 rat myoblast cells): > 1; cell growth reduction, epimastigotes ([4]; 72-hour exposure, 50 μM): less than 50%
C/C1=C\[C@H](C)CC[C@@H](O)/C(C)=C/[C@H](C)C[C@@H](C)CC[C@@H]([C@@H](C)C(=O)O)OC(=O)[C@@H](C)C1 [Strasseriolide B, strasseriolide B]	4.57		7.49	4962				> 6.40													Selectivity index T. cruzi Tulahuen C4 versus L6 cells (L6 rat myoblast cells): 1; pEC50 (L6 rat myoblast cells): 6.52; pEC50 ([3]; THP-1, 72 h): 3.79; pEC50 [4]: > 6.41
